# Assay results published in article PMC9304322, “Targeting retinoic acid receptor alpha-corepressor interaction activates chaperone-mediated autophagy and protects against retinal degeneration” (Nature Communications, 2022).
# Where “and” joins values, the source holds several entries; their conditions need not be identical. Identical values can stand only once.
# Assays:
# [1] = system: NIH3T3 stably expressing the KFERQ-PS-Dendra; assay: CMA activity, KFERQ-PS-Dendra fluorescent reporter in NIH3T3 mouse fibroblasts; type: cell-based; set-up: CMA activity (Fig. 1d), MEAN / CMA activity (Fig. 1e-g), mean / CMA activity (Fig. 1d), individual experiments / CMA activity, mean (Fig. S2c, second panel) / CMA activity, mean (Fig. S2c, first panel) / CMA activity, mean (Fig. S2c, third panel): unit not given here; details: for CMA activity (Fig. 1e-g), mean: n = 4; for CMA activity, mean (Fig. S2c, first panel) / CMA activity, mean (Fig. S2c, second panel) / CMA activity, mean (Fig. S2c, third panel): compound and cell type of panel not shown
# Description: Cells were transduced with lentivirus carrying the KFERQ-PS-Dendra reporter as before. Cells were photoactivated by exposure to a 3.5 mA (current constant) light emitting diode (LED: Norlux, 405 nm) for 3 min and then plated in glass-bottom 96 well plates. At the desired times, cells were fixed with 4% PFA and imaged using high-content microscopy (Operetta system, Perkin Elmer). Images were quantified using the manufacturer’s software in a minimum of 1,200 cells in 9 independent fields per well. […] This was particularly important in the case of primary human cells where the efficiency of transduction was ~65%. To avoid confounding effects for drug-induced changes in cell volume or adherence to the plate that could bring a fraction of the cells per field outside of focus, we set a threshold to count only […] that have at least 1/10 of the average number of […] detected in the untreated wells for each cell type (3–4 puncta/cell in the case of NIH3T3 and N2a cells and 5 puncta/cell in primary human fibroblasts).
# [2] = system: NIH3T3 cells stably expressing the mCherry-GFP-LC3 reporter; assay: Macroautophagy activity, mCherry-GFP-LC3 reporter; type: cell-based, mouse
# Description: Cells were transduced with a lentiviral vector expressing mCherry-GFP-LC3[35], fixed and flux determined as the conversion of dual fluorescence puncta (autophagosomes) into only red fluorescent puncta (autolysosomes). Flux was also measured by immunoblot for LC3 in cells incubated for 6 h with 20 mM NH4Cl/100 μM leupeptin, by discounting the intensity of LC3 in non-treated cells from that in cells treated with the inhibitors.
# [3] = concentration 10 (unit not given)
# [4] = concentration 15 (unit not given)
# [5] = concentration 20 (unit not given)
# [6] = concentration 25 (unit not given)
# [7] = concentration 30 (unit not given)
# [8] = concentration 40 (unit not given)
# [9] = concentration 50 (unit not given)
# [10] = c0 = 2 (axis unlabelled; ANOVA calls row factor Time)
structure (smiles),measurement,setting,value
Clc1ccc2c(c1)OCC(c1ccc(-c3ccccc3)cc1)=N2 [CA39],"CMA activity (Fig. 1d), MEAN","[1]; 20 μM of each compound, n = 3 independent experiments",4.580
same,"CMA activity (Fig. 1d), individual experiments","[1]; 20 μM of each compound, single experiments",5.482 and 4.270 and 3.988
same,"CMA activity (Fig. 1e-g), mean","[1]; 12h, concentration 0.02 (unit not given)",3.045
same,"CMA activity (Fig. 1e-g), mean","[1]; 12h, concentration 0.2",3.489
same,"CMA activity (Fig. 1e-g), mean","[1]; 12h, concentration 2",3.493
same,"CMA activity (Fig. 1e-g), mean","[1]; 12h, concentration 5",8.168
same,"CMA activity (Fig. 1e-g), mean","[1]; 12h, concentration 10",10.4134
same,"CMA activity (Fig. 1e-g), mean","[1]; 12h, concentration 20",22.9828
same,"CMA activity (Fig. 1e-g), mean","[1]; 12h, concentration 30",30.7253
same,"CMA activity (Fig. 1e-g), mean","[1]; 12h, concentration 40",33.0782
same,"CMA activity (Fig. 1e-g), mean","[1]; 12h, concentration 50",21.8692
same,"CMA activity (Fig. 1e-g), mean","[1]; 24h, concentration 0.02",3.576
same,"CMA activity (Fig. 1e-g), mean","[1]; 24h, concentration 0.2",3.419
same,"CMA activity (Fig. 1e-g), mean","[1]; 24h, concentration 2",5.488
same,"CMA activity (Fig. 1e-g), mean","[1]; 24h, concentration 5",11.6083
same,"CMA activity (Fig. 1e-g), mean","[1]; 24h, concentration 10",17.8717
same,"CMA activity (Fig. 1e-g), mean","[1]; 24h, concentration 20",34.1318
same,"CMA activity (Fig. 1e-g), mean","[1]; 24h, concentration 30",35.2802
same,"CMA activity (Fig. 1e-g), mean","[1]; 24h, concentration 40",50.2311
same,"CMA activity (Fig. 1e-g), mean","[1]; 24h, concentration 50",60.1885
same,"CMA activity (Fig. 1h-j), mean, untreated (0) = 1","[1]; concentration 0.2, 12+12w (12 h, then 12 h after washing out)",1.104
same,"CMA activity (Fig. 1h-j), mean, untreated (0) = 1","[1]; concentration 0.2, 12h",0.9726
same,"CMA activity (Fig. 1h-j), mean, untreated (0) = 1","[1]; concentration 0.2, 24h",1.209
same,"CMA activity (Fig. 1h-j), mean, untreated (0) = 1","[1]; concentration 2, 12+12w",1.202
same,"CMA activity (Fig. 1h-j), mean, untreated (0) = 1","[1]; concentration 2, 12h",0.9735
same,"CMA activity (Fig. 1h-j), mean, untreated (0) = 1","[1]; concentration 2, 24h",1.941
same,"CMA activity (Fig. 1h-j), mean, untreated (0) = 1","[1]; concentration 5, 12+12w",1.546
same,"CMA activity (Fig. 1h-j), mean, untreated (0) = 1","[1]; concentration 5, 12h",2.277
same,"CMA activity (Fig. 1h-j), mean, untreated (0) = 1","[1]; concentration 5, 24h",4.106
same,"CMA activity, mean (Fig. S2c, first panel)",[1]; [3],74.2616
same,"CMA activity, mean (Fig. S2c, second panel)",[1]; [3],29.9019
same,"CMA activity, mean (Fig. S2c, third panel)",[1]; [3],74.2616
same,"CMA activity (Fig. 1h-j), mean, untreated (0) = 1","[1]; concentration 10, 12+12w",2.775
same,"CMA activity (Fig. 1h-j), mean, untreated (0) = 1","[1]; concentration 10, 12h",2.902
same,"CMA activity (Fig. 1h-j), mean, untreated (0) = 1","[1]; concentration 10, 24h",6.322
same,"CMA activity, mean (Fig. S2c, first panel)",[1]; [4],68.2986
same,"CMA activity, mean (Fig. S2c, second panel)",[1]; [4],41.4399
same,"CMA activity, mean (Fig. S2c, third panel)",[1]; [4],68.2986
same,"CMA activity, mean (Fig. S2c, first panel)",[1]; [5],74.8347
same,"CMA activity, mean (Fig. S2c, second panel)",[1]; [5],54.0516
same,"CMA activity, mean (Fig. S2c, third panel)",[1]; [5],74.8347
same,"CMA activity (Fig. 1h-j), mean, untreated (0) = 1","[1]; concentration 20, 12+12w",4.843
same,"CMA activity (Fig. 1h-j), mean, untreated (0) = 1","[1]; concentration 20, 12h",6.406
same,"CMA activity (Fig. 1h-j), mean, untreated (0) = 1","[1]; concentration 20, 24h",12.0736
same,"CMA activity, mean (Fig. S2c, first panel)",[1]; [6],71.1281
same,"CMA activity, mean (Fig. S2c, second panel)",[1]; [6],57.8636
same,"CMA activity, mean (Fig. S2c, third panel)",[1]; [6],71.1281
same,"CMA activity, mean (Fig. S2c, first panel)",[1]; [7],76.3164
same,"CMA activity, mean (Fig. S2c, second panel)",[1]; [7],40.4368
same,"CMA activity, mean (Fig. S2c, third panel)",[1]; [7],76.3164
same,"CMA activity (Fig. 1h-j), mean, untreated (0) = 1","[1]; concentration 30, 12+12w",9.0956
same,"CMA activity (Fig. 1h-j), mean, untreated (0) = 1","[1]; concentration 30, 12h",8.564
same,"CMA activity (Fig. 1h-j), mean, untreated (0) = 1","[1]; concentration 30, 24h",12.4798
same,"CMA activity, mean (Fig. S2c, first panel)",[1]; [8],78.3071
same,"CMA activity, mean (Fig. S2c, second panel)",[1]; [8],58.9165
same,"CMA activity, mean (Fig. S2c, third panel)",[1]; [8],78.3071
same,"CMA activity, mean (Fig. S2c, first panel)",[1]; [9],53.1619
same,"CMA activity, mean (Fig. S2c, second panel)",[1]; [9],68.5848
same,"CMA activity, mean (Fig. S2c, third panel)",[1]; [9],53.1619
same,CMA activation compared with AR7,"[1]; fluorescent CMA reporter in mouse fibroblasts, basal and inducible CMA",> 40 % CMA of AR7
same,toxicity in cells,[1]; mouse fibroblasts,without noticeable toxicity
same,effect on macroautophagy,"[2]; NIH3T3, MRT-sensitive proteolysis, LC3-II flux, mCherry-GFP-LC3 reporter",did not have the inhibitory effect on macroautophagy
same,APG (Fig. S3e),[2]; [10],3.494
same,AUT (Fig. S3e),[2]; [10],0.8582
same,AV (Fig. S3e),[2]; [10],4.352
same,APG (Fig. S3e),[2]; c0 = 5 (axis unlabelled),2.288
same,AUT (Fig. S3e),[2]; c0 = 5 (axis unlabelled),1.522
same,AV (Fig. S3e),[2]; c0 = 5 (axis unlabelled),3.81
same,APG (Fig. S3e),[2]; c0 = 10 (axis unlabelled),2.801
same,AUT (Fig. S3e),[2]; c0 = 10 (axis unlabelled),1.622
same,AV (Fig. S3e),[2]; c0 = 10 (axis unlabelled),4.423
same,APG (Fig. S3e),[2]; c0 = 15 (axis unlabelled),3.21
same,AUT (Fig. S3e),[2]; c0 = 15 (axis unlabelled),1.42
same,AV (Fig. S3e),[2]; c0 = 15 (axis unlabelled),4.63
same,APG (Fig. S3e),[2]; c0 = 20 (axis unlabelled),2.614
same,AUT (Fig. S3e),[2]; c0 = 20 (axis unlabelled),2.2085
same,AV (Fig. S3e),[2]; c0 = 20 (axis unlabelled),4.823
same,APG (Fig. S3e),[2]; c0 = 25 (axis unlabelled),2.9327
same,AUT (Fig. S3e),[2]; c0 = 25 (axis unlabelled),2.406
same,AV (Fig. S3e),[2]; c0 = 25 (axis unlabelled),5.339
same,APG (Fig. S3e),[2]; c0 = 30 (axis unlabelled),1.904
same,AUT (Fig. S3e),[2]; c0 = 30 (axis unlabelled),2.071
same,AV (Fig. S3e),[2]; c0 = 30 (axis unlabelled),3.975
same,APG (Fig. S3e),[2]; c0 = 40 (axis unlabelled),3.037
same,AUT (Fig. S3e),[2]; c0 = 40 (axis unlabelled),2.167
same,AV (Fig. S3e),[2]; c0 = 40 (axis unlabelled),5.204
same,APG (Fig. S3e),[2]; c0 = 50 (axis unlabelled),3.658
same,AUT (Fig. S3e),[2]; c0 = 50 (axis unlabelled),0.5267
same,AV (Fig. S3e),[2]; c0 = 50 (axis unlabelled),4.185
